In BindingDB's records for doi:10.1046/j.1471-4159.2000.0752590.x (F. Hoffmann-La Roche, 2000):

Experiments:
[1] = biological target: Metabotropic glutamate receptor 1 (Homo sapiens, UniProt Q13255)
[2] = biological target: Metabotropic glutamate receptor 5 (Homo sapiens, UniProt P41594)
Metabotropic glutamate receptor 5, sequence (P41594 whole entry): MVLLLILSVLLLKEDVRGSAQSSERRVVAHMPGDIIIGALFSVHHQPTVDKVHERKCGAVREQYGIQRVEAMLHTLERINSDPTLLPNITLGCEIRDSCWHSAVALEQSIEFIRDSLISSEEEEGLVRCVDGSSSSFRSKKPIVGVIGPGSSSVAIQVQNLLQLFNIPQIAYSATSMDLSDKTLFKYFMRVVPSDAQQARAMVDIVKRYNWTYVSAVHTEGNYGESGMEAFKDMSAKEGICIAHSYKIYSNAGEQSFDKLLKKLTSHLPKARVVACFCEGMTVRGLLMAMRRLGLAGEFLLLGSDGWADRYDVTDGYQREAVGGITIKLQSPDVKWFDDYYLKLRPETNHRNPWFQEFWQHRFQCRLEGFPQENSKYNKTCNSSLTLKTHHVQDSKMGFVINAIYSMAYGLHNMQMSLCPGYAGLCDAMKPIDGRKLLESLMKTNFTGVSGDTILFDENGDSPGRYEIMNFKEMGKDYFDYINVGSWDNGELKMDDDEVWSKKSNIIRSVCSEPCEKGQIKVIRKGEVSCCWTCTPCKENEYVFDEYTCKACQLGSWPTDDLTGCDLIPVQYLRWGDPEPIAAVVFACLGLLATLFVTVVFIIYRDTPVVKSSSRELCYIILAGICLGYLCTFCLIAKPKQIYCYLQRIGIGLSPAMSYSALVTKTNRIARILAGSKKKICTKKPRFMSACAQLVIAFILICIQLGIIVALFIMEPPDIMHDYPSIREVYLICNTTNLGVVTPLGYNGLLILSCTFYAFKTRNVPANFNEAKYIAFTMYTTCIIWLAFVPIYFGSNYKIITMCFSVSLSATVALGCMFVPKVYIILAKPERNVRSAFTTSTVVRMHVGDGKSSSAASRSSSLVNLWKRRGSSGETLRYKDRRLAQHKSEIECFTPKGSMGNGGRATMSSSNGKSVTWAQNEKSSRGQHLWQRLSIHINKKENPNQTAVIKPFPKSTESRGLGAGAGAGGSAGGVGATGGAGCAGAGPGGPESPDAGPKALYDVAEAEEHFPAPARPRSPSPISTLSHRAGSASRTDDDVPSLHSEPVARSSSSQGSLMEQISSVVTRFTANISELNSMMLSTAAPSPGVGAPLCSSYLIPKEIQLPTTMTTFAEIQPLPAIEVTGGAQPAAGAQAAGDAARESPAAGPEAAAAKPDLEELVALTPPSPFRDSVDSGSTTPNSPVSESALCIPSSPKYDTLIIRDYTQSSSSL

Metabotropic glutamate receptor 1, sequence (Q13255 whole entry): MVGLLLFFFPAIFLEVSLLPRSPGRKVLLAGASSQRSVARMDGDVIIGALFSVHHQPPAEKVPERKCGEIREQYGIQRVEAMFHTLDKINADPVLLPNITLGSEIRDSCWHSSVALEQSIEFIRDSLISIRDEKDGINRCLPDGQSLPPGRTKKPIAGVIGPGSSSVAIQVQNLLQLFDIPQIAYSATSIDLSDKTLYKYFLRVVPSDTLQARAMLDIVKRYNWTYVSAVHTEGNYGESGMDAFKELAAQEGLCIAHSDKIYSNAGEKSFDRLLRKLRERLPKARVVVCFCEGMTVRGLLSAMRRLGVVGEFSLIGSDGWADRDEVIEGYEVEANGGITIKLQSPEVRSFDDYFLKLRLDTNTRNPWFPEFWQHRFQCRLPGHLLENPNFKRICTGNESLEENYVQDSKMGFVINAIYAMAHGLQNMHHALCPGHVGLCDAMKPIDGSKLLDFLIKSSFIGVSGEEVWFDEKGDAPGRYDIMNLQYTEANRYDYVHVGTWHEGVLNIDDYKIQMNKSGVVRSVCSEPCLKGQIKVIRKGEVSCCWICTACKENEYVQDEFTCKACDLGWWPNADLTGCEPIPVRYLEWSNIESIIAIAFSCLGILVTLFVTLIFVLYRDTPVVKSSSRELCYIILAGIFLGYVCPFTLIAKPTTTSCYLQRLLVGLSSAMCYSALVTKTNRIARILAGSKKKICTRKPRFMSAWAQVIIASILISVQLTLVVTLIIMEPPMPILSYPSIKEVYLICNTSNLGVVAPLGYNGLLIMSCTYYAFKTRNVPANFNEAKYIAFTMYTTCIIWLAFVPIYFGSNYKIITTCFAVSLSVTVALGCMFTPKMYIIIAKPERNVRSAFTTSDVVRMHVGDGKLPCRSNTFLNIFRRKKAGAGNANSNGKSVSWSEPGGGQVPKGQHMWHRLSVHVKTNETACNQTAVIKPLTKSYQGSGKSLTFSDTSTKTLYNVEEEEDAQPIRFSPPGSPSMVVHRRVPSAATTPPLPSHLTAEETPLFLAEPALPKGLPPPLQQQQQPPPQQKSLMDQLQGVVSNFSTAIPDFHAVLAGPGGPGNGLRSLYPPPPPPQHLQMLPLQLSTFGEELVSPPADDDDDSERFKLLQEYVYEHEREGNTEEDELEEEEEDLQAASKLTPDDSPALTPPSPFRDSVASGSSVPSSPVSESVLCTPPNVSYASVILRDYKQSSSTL

| Ki [1] [µM] | Ki [2] [µM] | Structure (SMILES) |
| --- | --- | --- |
| > 10 | > 10 | NC(C(=O)O)c1cc(O)ccc1Cl (stereo unspecified) [CHPG] |
| > 10 | > 10 | N[C@H](C(=O)O)C1[C@@H](C(=O)O)[C@@H]1C(=O)O (stereo partly specified) [DCG-IV] |
| > 10 | > 10 | O=c1nc2c3cc(-n4ccnc4)c([N+](=O)[O-])cc3[nH]c(=O)n2[nH]1 [Ro-48-8587] |
| 3.7 | > 10 | N[C@@H](C(=O)O)c1ccc(C(=O)O)cc1 [(S)-4CPG] |
| 0.9 | 3.9 | Nc1nc(O)c2ncn(COC(CO)CO)c2n1 [CAS_82410-32-0] |
| 0.7 | > 10 | Cc1cc(C(N)C(=O)O)ccc1C(=O)O (stereo unspecified) [2Me4CPG] |
|  | 2.5 | NC(C(=O)O)c1ccc(C(=O)O)c(O)c1 (stereo unspecified) |
| > 10 | 8.4 | N[C@H](C(=O)O)c1cccc(O)c1 [(S)-3-Hydroxyphenylglycine] |
| 2.3 | 1.5 | N[C@H](C(=O)O)[C@H]1C[C@H]1C(=O)O [L-CCG-IV] |

The remaining lines, values behind:

| Structure (SMILES) | Ki [1] [µM] | Ki [2] [µM] |
| --- | --- | --- |
| N[C@H](CP(=O)(O)O)C(=O)O [CAS_23052-80-4] | > 10 | > 10 |
| N[C@@H](Cn1oc(=O)[nH]c1=O)C(=O)O [2-amino-3-(3,5-dioxo[1,2,4]oxadiazolidin-2-yl)propionic acid] |  | 0.029 |
| Cc1onc(O)c1CC(N)C(=O)O (stereo not drawn) [(RS)-2-amino-3-(3-hydroxy-5-methylisoxazol-4-yl)-propionicacid] | > 10 | > 10 |
| C[C@@](N)(C(=O)O)c1ccc(C(=O)O)cc1 (racemic) | > 10 | > 10 |
| N[C@@]1(C(=O)O)CC[C@H](C(=O)O)C1 [1S, 3R-ACPD] |  | 2.1 |
| N[C@@H](CCP(=O)(O)O)C(=O)O | > 10 | > 10 |
| NC(C(=O)O)c1cc(=O)[nH]o1 (stereo unspecified) [Amino-(3-hydroxy-isoxazol-5-yl)-acetic acid(Ibotenic acid)] | 1.2 | 1.9 |
| NC1(C(=O)O)CCc2cc(C(=O)O)ccc21 (racemic) [AIDA] | > 10 | > 10 |
